Source: ChEMBL document CHEMBL4507263, “Data for DCP probe BAY-474” (2021)

Tests used:
Mus musculus = species: Mus musculus; experiment: Inhibition of Phorbol Ester at 10 µM in the Eurofins-Panlabs radioligand binding assay (Eurofins_assay_264500); set-up: ligand concentration 3 nM; conditions: Compound concentration 10.0 uM
[1] = molecular target: Proto-oncogene tyrosine-protein kinase ROS (Homo sapiens) (UniProt P08922); experiment: Ros (h) Millipore kinase activity assay; conditions: Compound concentration 1.0 uM
[2] = molecular target: Endothelin-1 receptor (Homo sapiens) (UniProt P25101); conditions: Compound concentration 10.0 uM
Oryctolagus cuniculus = species: Oryctolagus cuniculus; experiment: Inhibition of Purinergic P2X at 10 µM in the Eurofins-Panlabs radioligand binding assay (Eurofins_assay_268700); format: protein assay; conditions: Compound concentration 10.0 uM
[3] = molecular target: Neuropeptide Y receptor type 1 (Homo sapiens) (UniProt P25929); experiment: Inhibition of Neuropeptide Y Y1 at 10 µM in the Eurofins-Panlabs radioligand binding assay (Eurofins_assay_257010); conditions: Compound concentration 10.0 uM
[4] = molecular target: T1, D(4) dopamine receptor (Homo sapiens) (UniProt P21917); experiment: Inhibition of Dopamine D4.2 at 10 µM in the Eurofins-Panlabs radioligand binding assay (Eurofins_assay_219900); set-up: ligand concentration 0.5 nM; conditions: Compound concentration 10.0 uM
T1 sequence (whole entry): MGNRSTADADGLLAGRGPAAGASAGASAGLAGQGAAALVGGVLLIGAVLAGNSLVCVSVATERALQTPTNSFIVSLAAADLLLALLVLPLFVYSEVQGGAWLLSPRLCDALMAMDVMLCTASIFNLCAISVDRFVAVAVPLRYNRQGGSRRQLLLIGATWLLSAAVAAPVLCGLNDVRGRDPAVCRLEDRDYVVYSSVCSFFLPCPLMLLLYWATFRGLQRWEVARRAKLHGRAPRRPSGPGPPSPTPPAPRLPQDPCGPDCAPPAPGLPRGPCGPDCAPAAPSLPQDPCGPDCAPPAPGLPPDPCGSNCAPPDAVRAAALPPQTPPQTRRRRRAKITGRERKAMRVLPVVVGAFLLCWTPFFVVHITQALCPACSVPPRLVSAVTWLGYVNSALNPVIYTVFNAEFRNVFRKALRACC

[5] = molecular target: Mitogen-activated protein kinase 13 (Homo sapiens) (UniProt O15264); experiment: SAPK4 (h) Millipore kinase activity assay; conditions: Compound concentration 1.0 uM
[6] = molecular target: Protein kinase C alpha type (Homo sapiens) (UniProt P17252); experiment: PKCalpha (h) Millipore kinase activity assay; conditions: Compound concentration 1.0 uM
[7] = molecular target: Endothelin receptor type B (Homo sapiens) (UniProt P24530); conditions: Compound concentration 10.0 uM
[8] = molecular target: Sigma non-opioid intracellular receptor 1 (Homo sapiens) (UniProt Q99720); experiment: Sigma 1 Eurofins-Panlabs radioligand binding assay; set-up: ligand concentration 8 nM; conditions: Compound concentration 10.0 uM
[9] = molecular target: Tyrosine-protein kinase ABL2 (Homo sapiens) (UniProt P42684); experiment: Arg (h) Millipore kinase activity assay; conditions: Compound concentration 1.0 uM
[10] = molecular target: Tyrosine-protein kinase Fer (Homo sapiens) (UniProt P16591); experiment: Fer (h) Millipore kinase activity assay; conditions: Compound concentration 1.0 uM
[11] = molecular target: Adenosine receptor A2a (Homo sapiens) (UniProt P29274); conditions: Compound concentration 10.0 uM
[12] = molecular target: Activin receptor type-1 (Homo sapiens) (UniProt Q04771); conditions: Compound concentration 1000.0 nM
[13] = molecular target: Serine/threonine-protein kinase STK11 (Homo sapiens) (UniProt Q15831); conditions: Compound concentration 1000.0 nM
[14] = molecular target: Calcium/calmodulin-dependent protein kinase type II subunit alpha (Homo sapiens) (UniProt Q9UQM7); conditions: Compound concentration 1000.0 nM
[15] = molecular target: MAP/microtubule affinity-regulating kinase 4 (Homo sapiens) (UniProt Q96L34); conditions: Compound concentration 1000.0 nM
[16] = molecular target: Mitogen-activated protein kinase 7 (Homo sapiens) (UniProt Q13164); conditions: Compound concentration 1000.0 nM
[17] = molecular target: NUAK family SNF1-like kinase 1 (Homo sapiens) (UniProt O60285); conditions: Compound concentration 1000.0 nM
[18] = molecular target: High affinity nerve growth factor receptor (Homo sapiens) (UniProt P04629); conditions: Compound concentration 1000.0 nM
[19] = molecular target: Ribosomal protein S6 kinase alpha-3 (Homo sapiens, UniProt P51812); conditions: Compound concentration 1000.0 nM
[20] = molecular target: Mitogen-activated protein kinase kinase kinase kinase 4 (Homo sapiens) (UniProt O95819); conditions: Compound concentration 1000.0 nM
[21] = test system: Phosphatidylinositol 4,5-bisphosphate 3-kinase catalytic subunit alpha isoform (Homo sapiens), P42336 [E545A]; conditions: Compound concentration 1000.0 nM
[22] = test system: Phosphatidylinositol 4,5-bisphosphate 3-kinase catalytic subunit alpha isoform (Homo sapiens), P42336 [I800L]; conditions: Compound concentration 1000.0 nM
[23] = molecular target: Phosphatidylinositol 4,5-bisphosphate 3-kinase catalytic subunit alpha isoform (Homo sapiens) (UniProt P42336); conditions: Compound concentration 1000.0 nM
[24] = molecular target: Ribosomal protein S6 kinase alpha-4 (Homo sapiens) (UniProt O75676); conditions: Compound concentration 1000.0 nM
[25] = molecular target: 5'-AMP-activated protein kinase catalytic subunit alpha-2 (Homo sapiens) (UniProt P54646); conditions: Compound concentration 1000.0 nM
[26] = molecular target: Calcium/calmodulin-dependent protein kinase type 1B (Homo sapiens) (UniProt Q6P2M8); conditions: Compound concentration 1000.0 nM
[27] = molecular target: Epithelial discoidin domain-containing receptor 1 (Homo sapiens) (UniProt Q08345); conditions: Compound concentration 1000.0 nM
[28] = molecular target: Rho-associated protein kinase 1 (Homo sapiens) (UniProt Q13464); conditions: Compound concentration 1000.0 nM
[29] = molecular target: Insulin-like growth factor 1 receptor (Homo sapiens) (UniProt P08069); conditions: Compound concentration 1000.0 nM
[30] = molecular target: Serine/threonine-protein kinase Nek3 (Homo sapiens) (UniProt P51956); conditions: Compound concentration 1000.0 nM
[31] = molecular target: Casein kinase II subunit alpha (Homo sapiens) (UniProt P68400); conditions: Compound concentration 1000.0 nM
[32] = molecular target: Mast/stem cell growth factor receptor Kit (Homo sapiens) (UniProt P10721); conditions: Compound concentration 1000.0 nM
[33] = molecular target: Cyclin-dependent kinase-like 3 (Homo sapiens) (UniProt Q8IVW4); conditions: Compound concentration 1000.0 nM
[34] = molecular target: Mast/stem cell growth factor receptor Kit (Homo sapiens) (UniProt P10721); conditions: Compound concentration 1000.0 nM; remark: listed apart in the source
[35] = molecular target: Maternal embryonic leucine zipper kinase (Homo sapiens) (UniProt Q14680); conditions: Compound concentration 1000.0 nM
[36] = molecular target: Fibroblast growth factor receptor 4 (Homo sapiens) (UniProt P22455); conditions: Compound concentration 1000.0 nM
[37] = molecular target: Mitogen-activated protein kinase kinase kinase kinase 2 (Homo sapiens) (UniProt Q12851); conditions: Compound concentration 1000.0 nM

Sequence of Mast/stem cell growth factor receptor Kit (Homo sapiens) (P10721 whole entry): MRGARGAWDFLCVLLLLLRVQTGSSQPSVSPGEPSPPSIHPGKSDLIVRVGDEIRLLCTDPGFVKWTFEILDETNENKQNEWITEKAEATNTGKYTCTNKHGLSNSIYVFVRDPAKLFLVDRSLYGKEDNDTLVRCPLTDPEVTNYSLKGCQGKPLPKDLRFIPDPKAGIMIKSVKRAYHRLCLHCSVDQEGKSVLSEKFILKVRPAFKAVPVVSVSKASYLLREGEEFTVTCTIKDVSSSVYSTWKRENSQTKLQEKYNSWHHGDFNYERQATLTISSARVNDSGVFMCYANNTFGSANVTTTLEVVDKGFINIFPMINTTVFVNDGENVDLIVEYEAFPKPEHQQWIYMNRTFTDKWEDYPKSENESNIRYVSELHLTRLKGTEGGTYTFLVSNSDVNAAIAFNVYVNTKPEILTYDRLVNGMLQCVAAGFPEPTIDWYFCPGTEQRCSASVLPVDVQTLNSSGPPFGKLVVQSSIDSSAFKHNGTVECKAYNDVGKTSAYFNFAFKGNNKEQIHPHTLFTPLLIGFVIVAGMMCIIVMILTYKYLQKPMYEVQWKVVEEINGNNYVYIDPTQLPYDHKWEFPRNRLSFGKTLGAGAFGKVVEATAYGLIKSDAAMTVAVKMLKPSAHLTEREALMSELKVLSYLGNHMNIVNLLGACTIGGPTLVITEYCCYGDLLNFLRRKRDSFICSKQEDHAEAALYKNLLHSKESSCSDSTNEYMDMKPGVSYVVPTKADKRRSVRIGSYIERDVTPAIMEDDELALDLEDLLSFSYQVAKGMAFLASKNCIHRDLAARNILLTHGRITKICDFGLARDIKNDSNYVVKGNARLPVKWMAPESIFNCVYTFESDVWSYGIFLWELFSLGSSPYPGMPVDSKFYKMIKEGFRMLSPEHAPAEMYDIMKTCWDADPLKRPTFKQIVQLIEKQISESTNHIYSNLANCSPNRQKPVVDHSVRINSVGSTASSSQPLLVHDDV
Sequence of Calcium/calmodulin-dependent protein kinase type 1B (Homo sapiens) (Q6P2M8 whole entry, the tested form may be a part): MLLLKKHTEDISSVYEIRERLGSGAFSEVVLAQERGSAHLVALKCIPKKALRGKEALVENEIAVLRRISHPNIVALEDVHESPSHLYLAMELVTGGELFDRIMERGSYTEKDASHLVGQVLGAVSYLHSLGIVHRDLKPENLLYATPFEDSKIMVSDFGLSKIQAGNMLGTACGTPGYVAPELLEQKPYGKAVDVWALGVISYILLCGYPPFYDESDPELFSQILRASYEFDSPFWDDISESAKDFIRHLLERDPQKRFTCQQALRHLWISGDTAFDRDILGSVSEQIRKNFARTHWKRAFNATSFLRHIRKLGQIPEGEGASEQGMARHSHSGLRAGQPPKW
Sequence of Ribosomal protein S6 kinase alpha-4 (Homo sapiens) (O75676 whole entry, looked up): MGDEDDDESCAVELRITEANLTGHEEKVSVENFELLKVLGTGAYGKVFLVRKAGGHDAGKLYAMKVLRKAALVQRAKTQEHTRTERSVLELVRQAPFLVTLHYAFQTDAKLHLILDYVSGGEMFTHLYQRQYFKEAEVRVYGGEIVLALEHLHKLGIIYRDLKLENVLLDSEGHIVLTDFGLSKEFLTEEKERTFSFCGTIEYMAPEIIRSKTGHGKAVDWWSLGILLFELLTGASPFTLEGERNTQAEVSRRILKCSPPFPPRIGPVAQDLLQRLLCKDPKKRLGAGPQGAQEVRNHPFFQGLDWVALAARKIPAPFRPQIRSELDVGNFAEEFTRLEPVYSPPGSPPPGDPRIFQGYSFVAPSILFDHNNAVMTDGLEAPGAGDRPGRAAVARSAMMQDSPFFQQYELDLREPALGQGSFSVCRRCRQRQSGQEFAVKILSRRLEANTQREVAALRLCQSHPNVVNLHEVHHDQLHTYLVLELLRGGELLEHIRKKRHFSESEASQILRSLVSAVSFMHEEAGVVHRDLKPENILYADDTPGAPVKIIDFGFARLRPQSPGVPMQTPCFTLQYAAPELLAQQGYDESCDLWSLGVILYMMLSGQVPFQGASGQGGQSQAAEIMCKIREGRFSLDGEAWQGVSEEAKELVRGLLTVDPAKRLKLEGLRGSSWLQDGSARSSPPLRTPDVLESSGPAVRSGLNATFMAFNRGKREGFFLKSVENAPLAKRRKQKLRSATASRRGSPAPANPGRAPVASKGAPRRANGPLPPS
Sequence of Mitogen-activated protein kinase 7 (Homo sapiens) (Q13164 2-816 limits assumed): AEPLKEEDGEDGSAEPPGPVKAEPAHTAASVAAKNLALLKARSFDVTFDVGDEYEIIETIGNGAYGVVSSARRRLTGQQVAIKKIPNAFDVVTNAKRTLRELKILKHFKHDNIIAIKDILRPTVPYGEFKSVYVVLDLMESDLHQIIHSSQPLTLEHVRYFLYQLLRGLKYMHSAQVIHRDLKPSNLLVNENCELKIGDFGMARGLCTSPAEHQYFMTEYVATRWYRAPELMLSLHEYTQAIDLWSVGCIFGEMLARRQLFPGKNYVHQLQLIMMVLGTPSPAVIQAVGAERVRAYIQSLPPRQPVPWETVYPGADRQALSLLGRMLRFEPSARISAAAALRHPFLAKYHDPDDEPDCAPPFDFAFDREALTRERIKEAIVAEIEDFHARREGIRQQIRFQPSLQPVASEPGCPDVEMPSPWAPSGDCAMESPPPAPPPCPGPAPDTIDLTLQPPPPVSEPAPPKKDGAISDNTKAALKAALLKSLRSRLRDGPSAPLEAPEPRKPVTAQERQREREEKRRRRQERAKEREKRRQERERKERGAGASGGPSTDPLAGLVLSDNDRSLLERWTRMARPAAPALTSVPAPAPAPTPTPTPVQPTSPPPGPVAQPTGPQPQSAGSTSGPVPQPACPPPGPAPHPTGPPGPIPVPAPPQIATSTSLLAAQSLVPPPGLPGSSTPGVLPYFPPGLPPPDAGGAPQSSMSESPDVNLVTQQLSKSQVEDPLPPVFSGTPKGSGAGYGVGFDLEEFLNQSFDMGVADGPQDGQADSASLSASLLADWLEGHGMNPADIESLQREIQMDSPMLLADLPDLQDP
Sequence of Sigma non-opioid intracellular receptor 1 (Homo sapiens) (Q99720 whole entry): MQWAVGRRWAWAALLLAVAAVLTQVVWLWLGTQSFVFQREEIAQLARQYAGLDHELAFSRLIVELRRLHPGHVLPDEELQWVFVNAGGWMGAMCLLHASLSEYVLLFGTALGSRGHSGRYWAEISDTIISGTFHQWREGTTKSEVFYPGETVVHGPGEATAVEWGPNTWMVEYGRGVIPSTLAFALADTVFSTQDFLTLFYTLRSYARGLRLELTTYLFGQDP
Sequence of Calcium/calmodulin-dependent protein kinase type II subunit alpha (Homo sapiens) (Q9UQM7 whole entry): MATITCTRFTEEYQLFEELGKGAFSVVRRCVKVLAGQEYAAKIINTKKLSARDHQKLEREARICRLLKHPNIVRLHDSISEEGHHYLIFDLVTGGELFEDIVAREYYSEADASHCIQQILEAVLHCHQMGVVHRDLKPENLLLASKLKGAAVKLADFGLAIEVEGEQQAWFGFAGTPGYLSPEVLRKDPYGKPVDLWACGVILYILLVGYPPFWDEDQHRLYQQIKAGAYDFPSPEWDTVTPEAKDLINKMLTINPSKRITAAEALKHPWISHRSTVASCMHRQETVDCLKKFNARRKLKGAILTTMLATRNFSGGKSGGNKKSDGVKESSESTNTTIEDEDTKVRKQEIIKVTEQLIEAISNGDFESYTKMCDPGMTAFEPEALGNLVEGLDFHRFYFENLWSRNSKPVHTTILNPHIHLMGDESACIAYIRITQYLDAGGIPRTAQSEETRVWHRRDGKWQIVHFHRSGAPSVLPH
Sequence of Activin receptor type-1 (Homo sapiens) (Q04771 whole entry): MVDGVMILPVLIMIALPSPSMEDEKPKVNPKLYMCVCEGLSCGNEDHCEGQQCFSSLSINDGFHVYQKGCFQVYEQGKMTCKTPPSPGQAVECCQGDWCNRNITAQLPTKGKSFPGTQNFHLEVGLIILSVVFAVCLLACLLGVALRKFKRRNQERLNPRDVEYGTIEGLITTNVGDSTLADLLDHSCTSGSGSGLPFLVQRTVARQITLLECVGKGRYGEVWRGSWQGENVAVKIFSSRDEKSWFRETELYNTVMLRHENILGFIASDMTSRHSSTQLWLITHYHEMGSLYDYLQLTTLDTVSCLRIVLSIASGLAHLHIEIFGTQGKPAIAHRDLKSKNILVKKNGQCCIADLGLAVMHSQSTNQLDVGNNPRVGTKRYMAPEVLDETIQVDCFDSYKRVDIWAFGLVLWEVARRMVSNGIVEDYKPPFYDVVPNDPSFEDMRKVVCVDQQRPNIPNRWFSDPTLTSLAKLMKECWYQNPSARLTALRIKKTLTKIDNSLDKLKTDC
Sequence of MAP/microtubule affinity-regulating kinase 4 (Homo sapiens) (Q96L34 whole entry): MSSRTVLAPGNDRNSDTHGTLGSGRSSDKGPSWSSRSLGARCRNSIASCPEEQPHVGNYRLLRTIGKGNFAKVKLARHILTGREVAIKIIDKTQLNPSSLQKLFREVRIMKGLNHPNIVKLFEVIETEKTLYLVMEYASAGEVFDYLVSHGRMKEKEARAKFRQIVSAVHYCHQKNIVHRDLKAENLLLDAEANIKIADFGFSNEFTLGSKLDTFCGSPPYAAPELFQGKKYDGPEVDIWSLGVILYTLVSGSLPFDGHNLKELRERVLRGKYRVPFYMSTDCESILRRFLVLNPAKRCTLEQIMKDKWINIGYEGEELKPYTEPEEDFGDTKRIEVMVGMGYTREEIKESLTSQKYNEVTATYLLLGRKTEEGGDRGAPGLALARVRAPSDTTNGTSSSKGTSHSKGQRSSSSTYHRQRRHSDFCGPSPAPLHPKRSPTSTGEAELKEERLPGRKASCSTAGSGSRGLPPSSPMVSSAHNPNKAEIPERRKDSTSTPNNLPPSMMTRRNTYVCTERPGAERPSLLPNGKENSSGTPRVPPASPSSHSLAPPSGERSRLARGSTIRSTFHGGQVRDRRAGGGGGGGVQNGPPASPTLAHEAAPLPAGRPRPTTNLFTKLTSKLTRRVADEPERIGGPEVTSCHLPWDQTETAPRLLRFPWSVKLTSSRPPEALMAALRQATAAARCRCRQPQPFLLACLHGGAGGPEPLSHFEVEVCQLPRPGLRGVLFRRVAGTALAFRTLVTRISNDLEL

CC1=C(C#N)C(c2ccc3[nH]nc(C)c3c2)C(C#N)=C(C)N1 [BAY-474]
inactive: inhibition (Mus musculus) 4% | inhibition [1] 25% | inhibition [2] 7% | inhibition (Oryctolagus cuniculus) -1% | inhibition [3] 1% | inhibition [4] -2% | inhibition [5] 10% | inhibition [6] 18% | inhibition [7] 18% | inhibition [8] 15% | inhibition [9] 26% | inhibition [10] 22% | inhibition [11] 7%

CC1=C(C#N)[C@@H](c2ccc3[nH]nc(C)c3c2)C(C#N)=C(c2ccc(Cl)cc2)N1 [BAY-827]
inactive: residual activity [12] 100% | residual activity [13] 100% | residual activity [14] 100% | residual activity [15] 100% | residual activity [16] 90% | residual activity [17] 100% | residual activity [18] 84.6% | residual activity [19] 86.2% | residual activity [20] 100% | residual activity [21] 75.4% | residual activity [22] 100% | residual activity [23] 100% | residual activity [24] 100% | residual activity [25] 95.3% | residual activity [26] 98.5% | residual activity [27] 84.5% | residual activity [28] 68.5% | residual activity [29] 100% | residual activity [30] 100% | residual activity [31] 100% | residual activity [32] 95.4% | residual activity [33] 100% | residual activity [34] 71.2% | residual activity [35] 100% | residual activity [36] 100% | residual activity [37] 100%
